ChEMBL document CHEMBL1134281, “Monosaccharide-linked inhibitors of O(6)-methylguanine-DNA methyltransferase (MGMT): synthesis, molecular modeling, and structure-activity relationships” (J Med Chem, 2001)

Biological target: T1, Methylated-DNA--protein-cysteine methyltransferase (Homo sapiens, UniProt P16455)
T1 sequence (P16455 whole entry): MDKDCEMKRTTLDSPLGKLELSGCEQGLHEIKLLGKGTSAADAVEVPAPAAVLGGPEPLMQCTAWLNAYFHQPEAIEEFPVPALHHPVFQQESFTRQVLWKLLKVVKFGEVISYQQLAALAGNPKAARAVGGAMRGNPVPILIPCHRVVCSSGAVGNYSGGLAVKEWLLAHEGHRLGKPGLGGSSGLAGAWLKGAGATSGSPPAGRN
Experiment: In vitro inhibition of MGMT using cell free extracts from HeLa S3 cells

Row | IC50 [nM] | SMILES
1 | 9 | Nc1nc(OCc2cc(Br)cs2)c2[nH]cnc2n1 [LOMEGUATRIB]
2 | 38 | Nc1nc(OCc2ccccc2)c2[nH]nnc2n1
